Measurements from patent US20170348269A1, “TREATMENT OF UREA CYCLE DISORDERS IN NEONATES AND INFANTS” (Horizon Therapeutics, LLC, priority 2016, published 2017).
Where “and” joins values, the source holds several entries; their conditions need not be identical. Identical values can stand only once.

Experiments:
[1] = test system: blood ammonia in pediatric patients with UCDs; experiment: HPN-100-012 open-label fixed sequence switch-over study, blood ammonia control; assay type: in vivo, human
From the text: HPN-100-012, an open-label, fixed sequence, switch-over study of the safety, PK and efficacy of HPN-100 compared to NaPBA in patients with UCDs, with a 12-month safety extension part. […] After review of all the safety data by the DSMB, 8 additional subjects were enrolled in the study after the switch-over phase was completed. The primary efficacy endpoint was the 24-hour AUC (area under the curve) for blood ammonia on Day 1 compared with Day 10.

[2] = test system: venous ammonia in pediatric patients with UCDs; experiment: Study 6, uncontrolled open-label study in children under 2 years of age; assay type: in vivo, human
Description: Uncontrolled, open-label studies were conducted to assess monthly ammonia control and hyperammonemic crisis of RAVICTI® in pediatric patients with UCDs 2 months to less than 2 years of age (Study 4/4E, Study 5, and Study 6). Patients in Study 5 previously participated in Study 4/4E. A total of 17 pediatric patients with UCDs aged 2 months to less than 2 years participated in the studies.
A total of 10 pediatric patients with UCDs aged 2 months to less than 2 years participated in Study 6, of which 7 patients converted from sodium phenylbutyrate to RAVICTI®. The dosage of RAVICTI® was calculated to deliver the same amount of PBA as the sodium phenylbutyrate dosage the patients were taking when they entered the trial. Two patients were treatment naïve and received RAVICTI® dosage of 7.5 mL/m^2/day and 9.4 mL/m^2/day, respectively. One additional patient was gradually discontinued from intravenous sodium benzoate and sodium phenylacetate while RAVICTI® was initiated. The dosage of RAVICTI® after transition was 8.5 mL/m^2/day.
In Study 6, there were 9, 7 and 3 pediatric patients who completed 1, 3 and 6 months, respectively (mean and median exposure of 4 and 5 months, respectively).
Patients received a mean RAVICTI® dose of 8 mL/m^2/day (8.8 g/m^2/day), with doses ranging from 4.8 to 11.5 mL/m^2/day (5.3 to 12.6 g/m^2/day). Patients were dosed three times a day (n=6), four times a day (n=2), or five or more times a day (n=2).
The primary efficacy endpoint was successful transition to RAVICTI® within a period of 4 days followed by 3 days of observation for a total of 7 days, where successful transition was defined as no signs and symptoms of hyperammonemia and a venous ammonia value less than 100 micromol/L. Venous ammonia levels were monitored for up to 4 days during transition and on day 7. Nine patients successfully transitioned as defined by the primary endpoint. One additional patient developed hyperammonemia on day 3 of dosing and experienced surgical complications (bowel perforation and peritonitis) following jejunal tube placement on day 4. This patient developed hyperammonemic crisis on day 6, and subsequently died of sepsis from peritonitis unrelated to drug. Although two patients had day 7 ammonia values of 150 micromol/L and 111 micromol/L respectively, neither had associated signs and symptoms of hyperammonemia.
During the extension phase, venous ammonia levels were monitored monthly. Ammonia values across different laboratories were normalized (transformed) to a common normal pediatric range of 28 to 57 micromol/L for comparability. The mean normalized venous ammonia values in pediatric patients at month 1, 2, 3, 4, 5 and 6 were 67, 53, 78, 99, 56 and 61 micromol/L during treatment with RAVICTI®, respectively. Three patients reported a total of 7 hyperammonemic crises defined as having signs and symptoms consistent with hyperammonemia (such as frequent vomiting, nausea, headache, lethargy, irritability, combativeness, and/or somnolence) associated with high venous ammonia levels and requiring medical intervention. Hyperammonemic crises were precipitated by vomiting, upper respiratory tract infection, gastroenteritis, decreased caloric intake or had no identified precipitating event (3 events). There were three additional patients who had one venous ammonia level that exceeded 100 micromol/L which was not associated with a hyperammonemic crisis.

[3] = test system: ammonia in UCD patients; experiment: Open label fixed-sequence switch-over comparison of RAVICTI to NaPBA, 4 patients aged 2 months to 2 years; assay type: in vivo, human
From the text: While the U.S. approval of RAVICTI® was based on its evaluation in 6 clinical trials involving over 100 adult and pediatric UCD patients aged 2 months old and above, only 7 patients aged 2 months to 2 years were enrolled in these studies. […] PAA exposure, also assessed as 24-hour area under the curve, was very similar. However, the number of patients in this age group studied at the time of RAVICTI's approval was small and considerable patient-to-patient variability was observed.

[4] = test system: pancreatic lipase-related protein; settings: cited from earlier work
[5] = biological target: T1, bile salt-stimulated lipase (Homo sapiens, UniProt P19835); settings: cited from earlier work
T1 sequence (P19835 21-753): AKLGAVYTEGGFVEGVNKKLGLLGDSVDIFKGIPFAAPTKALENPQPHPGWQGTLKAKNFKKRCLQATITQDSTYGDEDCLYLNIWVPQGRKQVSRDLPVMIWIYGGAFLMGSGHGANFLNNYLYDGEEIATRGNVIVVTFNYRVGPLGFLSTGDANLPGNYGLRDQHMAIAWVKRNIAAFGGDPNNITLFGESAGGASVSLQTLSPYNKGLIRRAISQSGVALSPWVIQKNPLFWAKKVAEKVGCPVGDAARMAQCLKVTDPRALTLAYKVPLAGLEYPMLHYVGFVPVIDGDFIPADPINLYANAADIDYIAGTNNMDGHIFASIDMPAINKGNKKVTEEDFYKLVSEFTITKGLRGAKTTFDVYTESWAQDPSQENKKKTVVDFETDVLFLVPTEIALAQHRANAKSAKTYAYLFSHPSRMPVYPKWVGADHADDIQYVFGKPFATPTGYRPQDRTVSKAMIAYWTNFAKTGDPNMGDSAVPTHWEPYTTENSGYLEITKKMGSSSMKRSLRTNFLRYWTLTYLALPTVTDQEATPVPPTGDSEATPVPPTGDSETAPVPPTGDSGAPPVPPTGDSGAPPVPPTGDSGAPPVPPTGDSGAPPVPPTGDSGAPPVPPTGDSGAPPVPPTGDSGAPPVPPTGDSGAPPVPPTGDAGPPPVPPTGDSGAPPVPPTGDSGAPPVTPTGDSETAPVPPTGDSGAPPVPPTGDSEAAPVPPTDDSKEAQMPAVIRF

[6] = original scale, predefined non-inferiority upper margin 1.25
[7] = Study 6 extension phase, normalized to 28 to 57 micromol/L

PAA exposure assessed as 24-hour area under the curve, RAVICTI vs NaPBA [3]: very similar
SMILES: O=C(CCCc1ccccc1)OCC(COC(=O)CCCc1ccccc1)OC(=O)CCCc1ccccc1 [HPN-100, benzenebutanoic acid, 1′,1″-(1,2,3-propanetriyl) ester]
Mean blood ammonia at the 12-hour time point ([1]; HPN-100 Day 10, NaPBA Day 1, highest value for both treatments): 28.24 µmol/L
Mean blood ammonia at the 8-h time point ([1]; HPN-100 Day 10, lowest value on HPN-100): 23.20 µmol/L
24-hour AUC for blood ammonia, HPN-100 vs NaPBA, upper 90% CI [1, 6]: 1.002
24-hour AUC for blood ammonia, HPN-100 vs NaPBA, upper 95% CI [1, 6]: 1.055
ammonia AUC, median difference between treatments (HPN-100 vs NaPBA) ([1]; pediatric UCD patients 29 days to <6 years): -37.84 µmol·h/L
24-hour AUC for blood ammonia (primary efficacy endpoint), HPN-100 compared to NaPBA ([1]; pediatric UCD patients aged 29 days to <6 years, Day 1 (NaPBA) vs Day 10 (HPN-100), non-inferiority upper margin 1.25): non-inferior
Blood ammonia levels postprandially at any given time point, HPN-100 (Day 10) vs NaPBA (Day 1) ([1]; postprandial): directionally lower
additional patients with one venous ammonia level exceeding 100 micromol/L not associated with a hyperammonemic crisis ([2]; Study 6): three
patients successfully transitioned (no signs and symptoms of hyperammonemia and venous ammonia less than 100 micromol/L) ([2]; Study 6, 10 patients 2 months to <2 years, 7 days): Nine
day 7 ammonia values of two individual patients ([2]; Study 6, no associated signs and symptoms of hyperammonemia, listed as RAVICTI®): 150 µmol/L and 111 µmol/L
total hyperammonemic crises ([2]; Study 6, reported by three patients): 7
mean normalized venous ammonia, month 1 [2, 7]: 67 µmol/L
mean normalized venous ammonia, month 2 [2, 7]: 53 µmol/L
mean normalized venous ammonia, month 3 [2, 7]: 78 µmol/L
mean normalized venous ammonia, month 4 [2, 7]: 99 µmol/L
mean normalized venous ammonia, month 5 [2, 7]: 56 µmol/L
mean normalized venous ammonia, month 6 [2, 7]: 61 µmol/L
mean ammonia exposure assessed at 24-hour area under the curve, RAVICTI vs NaPBA [3]: non-inferior
hydrolysis in vitro by pancreatic lipase-related protein [4]: hydrolyze
hydrolysis in vitro by bile salt-stimulated lipase [5]: hydrolyze
